Results taken from ChEMBL document CHEMBL1201862, “PubChem BioAssay data set” (2004).
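How tested: cells in 96-well plates exposed to compound for 48 hours at five concentrations. Here, GI50 denotes the concentration required for 50% inhibition of growth.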 Calls of active or inactive are those of the source. No stated cut-off is given here; in the data, active = GI50 up to about 1.1 µM and inactive = higher.

How the values were obtained:
Assay in all cases: NCI anticancer screen, dose series, 48 h
NCI-H522 = system: NCI-H522
RPMI-8226 = system: RPMI-8226
HOP-18 = system: HOP-18
KM12 = system: KM12
DMS-114 = system: DMS-114
IGROV-1 = system: IGROV-1
786-0 = system: 786-0
M14 = system: M14
K562 = system: K562
OVCAR-4 = system: OVCAR-4
CAKI-1 = system: CAKI-1
SK-OV-3 = system: SK-OV-3
NCI-H226 = system: NCI-H226
HL-60 = system: HL-60
CCRF-CEM = system: CCRF-CEM
SN12C = system: SN12C
SK-MEL-28 = system: SK-MEL-28
DMS-273 = system: DMS-273
SF-268 = system: SF-268
SNB-78 = system: SNB-78
KM-20L2 = system: KM-20L2
SK-MEL-5 = system: SK-MEL-5
HCT-116 = system: HCT-116
OVCAR-3 = system: OVCAR-3
UO-31 = system: UO-31
A498 = system: A498
SK-MEL-2 = system: SK-MEL-2
OVCAR-8 = system: OVCAR-8
SF-539 = system: SF-539
Malme-3M = system: Malme-3M
SNB-75 = system: SNB-75
U-251 = system: U-251
MOLT-4 = system: MOLT-4
LXFL 529 = system: LXFL 529
SW-620 = system: SW-620
HOP-62 = system: HOP-62
UACC-62 = system: UACC-62
SR = system: SR
NCI-H460 = system: NCI-H460
ACHN = system: ACHN
RXF 393 = system: RXF 393
M19-MEL = system: M19-MEL
A549 = system: A549
HCC 2998 = system: HCC 2998
COLO 205 = system: COLO 205
SNB-19 = system: SNB-19
UACC-257 = system: UACC-257
DLD-1 = system: DLD-1
HCT-15 = system: HCT-15
TK-10 = system: TK-10

With `O=C(c1ccccc1)C1CCCCN1C(=O)c1ccccc1` (stereo not given) the GI50 (NCI-H522) was > 100 µM (inactive), the GI50 (RPMI-8226) was > 100 µM (inactive) and the GI50 (HOP-18) was > 100 µM (inactive). For the same molecule, the GI50 (KM12) was > 100 µM (inactive), the GI50 (DMS-114) was > 100 µM (inactive) and the GI50 (IGROV-1) was > 100 µM (inactive). The GI50 (786-0) was > 100 µM (inactive), the GI50 (M14) was > 100 µM (inactive) and the GI50 (K562) was > 100 µM (inactive). For the same molecule, the GI50 (OVCAR-4) was > 100 µM (inactive), the GI50 (CAKI-1) was > 100 µM (inactive) and the GI50 (SK-OV-3) was > 100 µM (inactive). For the same molecule, the GI50 (NCI-H226) was > 100 µM (inactive), the GI50 (HL-60) was > 100 µM (inactive) and the GI50 (CCRF-CEM) was > 100 µM (inactive). The GI50 (SN12C) was > 100 µM (inactive), the GI50 (SK-MEL-28) was > 100 µM (inactive) and the GI50 (DMS-273) was > 100 µM (inactive). For the same molecule, the GI50 (SF-268) was > 100 µM (inactive), the GI50 (SNB-78) was > 100 µM (inactive) and the GI50 (KM-20L2) was > 100 µM (inactive). For the same molecule, the GI50 (SK-MEL-5) was > 100 µM (inactive), the GI50 (HCT-116) was > 100 µM (inactive) and the GI50 (OVCAR-3) was > 100 µM (inactive). The GI50 (UO-31) was > 100 µM (inactive), the GI50 (A498) was > 100 µM (inactive) and the GI50 (SK-MEL-2) was > 100 µM (inactive). For the same molecule, the GI50 (OVCAR-8) was > 100 µM (inactive), the GI50 (SF-539) was > 100 µM (inactive) and the GI50 (Malme-3M) was > 100 µM (inactive). The GI50 (SNB-75) was > 100 µM (inactive), the GI50 (U-251) was > 100 µM (inactive) and the GI50 (MOLT-4) was > 100 µM (inactive). The GI50 (LXFL 529) was > 100 µM (inactive), the GI50 (SW-620) was > 100 µM (inactive) and the GI50 (HOP-62) was > 100 µM (inactive). For the same molecule, the GI50 (UACC-62) was 25.7 µM (inactive), the GI50 (SR) was > 100 µM (inactive) and the GI50 (NCI-H460) was > 100 µM (inactive). The GI50 (ACHN) was > 100 µM (inactive), the GI50 (RXF 393) was > 100 µM (inactive) and the GI50 (M19-MEL) was > 100 µM (inactive). For the same molecule, the GI50 (A549) was > 100 µM (inactive), the GI50 (HCC 2998) was > 100 µM (inactive) and the GI50 (COLO 205) was > 100 µM (inactive). For the same molecule, the GI50 (SNB-19) was > 100 µM (inactive), the GI50 (UACC-257) was > 100 µM (inactive) and the GI50 (DLD-1) was > 100 µM (inactive). The GI50 (HCT-15) was greater than 100 µM and the GI50 (TK-10) was > 100 µM (inactive).
